pIC50: −log10 of the molar value. In brackets after ≈: the same amount, converted by molar mass. Activity calls are given as the source filed them. No cut-off for these calls is given here.

Data set [1] in a line: Inhibition of chymotrypsin-like activity of human 20S proteasome beta 5 subunit by proteasome active site ELISA. A general note: An ELISA detects its analyte on a solid surface through an enzyme-linked reagent.
Data set [2] has as its system RL. Kind of data set: Antitumor activity against human RL cells xenografted in BNX mouse assessed as time to achieve significant decrease in tumor volume at 20 mg/kg, po administered as weekly qdx2 schedule. The format is functional, organism-based. Details: dose 20 mg/kg.
Data set [3] concerns CT26. As to the kind of experiment: Antitumor activity against mouse CT26 cells xenografted in BALB/c mouse assessed as time to achieve significant decrease in tumor volume at 20 mg/kg, po administered 3 days post tumor challenge in weekly qdx2 schedule. Details: dose 20 mg/kg. The format is functional, organism-based.
The nature of data set [4]: Toxicity in po dosed BNX mouse xenografted with human RL cells assessed as maximum tolerated dose. Conditions: in vivo. Format: organism-based. Background: A xenograft is tissue or cells of one species grown in another, often human tumour cells in immunodeficient mice.
The nature of data set [5]: Toxicity in po dosed BALB/c mouse xenografted with mouse CT26 cells assessed as maximum tolerated dose. Format: organism-based. Conditions: in vivo.
Data set [6] can be described thus: Inhibition of chymotrypsin-like activity of human 20S proteasome by spectrofluorimetry.
The nature of data set [7]: Inhibition of chymotrypsin-like activity of 20S proteasome in human MOLT4 cells after 1 hr by […]. Format: cell-based. The following applies: MOLT-4, 1 h. Background: Cellular ATP, detected with luciferase, serves as a proxy for viable cell number.
The nature of data set [8]: Cytotoxicity against human MESSA cells assessed as cell viability after 72 hrs by CellTiter-Glo luminescent assay. The format is functional, cell-based. The following applies: MES-SA.
Data set [9] is described as follows: Cytotoxicity against multidrug resistance transporter expressing doxorubicin resistant human MESSA cells assessed as cell viability after 72 hrs by CellTiter-Glo luminescent assay. Format: functional, cell-based. Conditions: MES-SA.
Data set [10] can be described thus: Chemical stability in simulated intestinal fluid assessed as compound remaining at 4 uM after 15 mins. The format is physicochemical. Conditions: read-out: Stability.
Data set [11] can be described thus: Metabolic stability in mouse liver microsomes assessed as extraction ratio at 1 uM. Format: ADME, Microsome.
Data set [12] can be described thus: Metabolic stability in human liver microsomes assessed as extraction ratio at 1 uM. Format: ADME, Microsome.
The subject of data set [13] is Mus musculus. As to the kind of experiment: Inhibition of chymotrypsin-like activity of 20S proteasome in BALB/c mouse adrenal gland at 10 mg/kg, po after 1 hr. Format: functional. Further details: scale not given: the % may be the effect or the level left.
Data set [14] concerns the target T1, Proteasome subunit beta type-8 (Homo sapiens, UniProt P28062).
T1 sequence (P28062 whole entry): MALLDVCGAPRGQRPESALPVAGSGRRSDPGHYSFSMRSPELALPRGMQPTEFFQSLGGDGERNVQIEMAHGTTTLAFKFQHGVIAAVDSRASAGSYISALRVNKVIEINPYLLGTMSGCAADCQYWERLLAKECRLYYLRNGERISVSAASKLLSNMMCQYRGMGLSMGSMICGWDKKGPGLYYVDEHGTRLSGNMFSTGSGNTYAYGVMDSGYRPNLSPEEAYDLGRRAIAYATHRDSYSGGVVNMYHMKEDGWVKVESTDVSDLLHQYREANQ
Description: Inhibition of chymotrypsin-like activity of LMP7 immunoproteasome by proteasome active site ELISA

The species entered for data set [15] is Homo sapiens. Kind of data set: Ratio of Kinact to Ki for chymotrypsin-like activity of human 26S proteasome by spectrophotometry. Details: unit not given here.
In data set [16] the test system is Mus musculus. Kind of data set: Inhibition of chymotrypsin-like activity of 20S proteasome in BALB/c mouse adrenal gland 40 mg/kg, po after 1 hr. Format: functional. Further details: scale not given: the % may be the effect or the level left.
The nature of data set [17]: Solubility in ethanol-PS80 citrate buffer at pH 3.5 by HPLC analysis. The format is physicochemical.
In data set [18] the test system is Mus musculus. Kind of data set: Inhibition of chymotrypsin-like activity of 20S proteasome in BALB/c mouse adrenal gland at 20 mg/kg, po after 1 hr. Further details: scale not given: the % may be the effect or the level left. The format is functional.
Data set [19] is filed under the species Homo sapiens. Kind of data set: Selectivity for chymotrypsin-like activity over caspase-like activity of human 20S proteasome.
Data set [20] deals with RL. As to the kind of experiment: Antitumor activity against human RL cells xenografted BNX mouse assessed as time to achieve significant decrease in tumor volume at 5 mg/kg, iv administered as weekly qdx2 schedule. The format is functional.
Data set [21] concerns CT26. Kind of data set: Antitumor activity against mouse CT26 cells xenografted in BALB/c mouse assessed as time to achieve significant decrease in tumor volume at 5 mg/kg, iv administered on day 3 post tumor challenge for weekly qdx2 schedule. The format is functional.
Data set [22] is described as follows: Toxicity in iv dosed BALB/c mouse xenografted with mouse CT26 cells assessed as maximum tolerated dose. Format: organism-based. The following applies: in vivo.
The subject of data set [23] is Mus musculus. As to the kind of experiment: Inhibition of chymotrypsin-like activity of 20S proteasome in BALB/c mouse liver at 40 mg/kg, po after 1 hr. Format: functional. Further details: scale not given: the % may be the effect or the level left.
The subject of data set [24] is Mus musculus. As to the kind of experiment: Inhibition of chymotrypsin-like activity of 20S proteasome in BALB/c mouse blood at 40 mg/kg, po after 1 hr. The format is functional. Details: scale not given: the % may be the effect or the level left.
A short description of data set [25]: Chemical stability in simulated gastric fluid assessed as compound remaining at 4 uM after 15 mins. The following applies: read-out: Stability. The format is physicochemical.
The species entered for data set [26] is Homo sapiens. Kind of data set: Selectivity for chymotrypsin-like activity over trypsin-like activity of human 20S proteasome.

As usually defined, the pIC50 is the IC50 on a negative log10 scale, so that one unit is a factor of ten. As usually defined, the MTD is the largest dose that counted as tolerated. With `CCOc1cc(C(=O)N[C@@H](COC)C(=O)N[C@@H](COC)C(=O)N[C@@H](Cc2ccccc2)C(=O)[C@@]2(C)CO2)no1`, the pIC50 in data set [1] was 8.43; in [6], 8.85; in data set [7] it was 8.52; in [8] it was 8.37; in [9] it was 7.27; in [14] it was 8.30. Besides, the outcome with RL [2] and in the data set with CT26 [3] was inactive. In addition, the MTD in [4] and in data set [5] was 20 mg/kg in each case. Also, in [10], the remaining at 0.25 h, 4 µM was 85%. Besides, the hepatic extraction ratio at 1 µM in data set [11] and in data set [12] was 0.77 dimensionless ratio throughout. In the data set on Mus musculus [13], this molecule had an Activity of 3%.

One may read the solubility as how much of the substance goes into solution per volume. Consider `COC[C@H](NC(=O)c1cc(C)on1)C(=O)N[C@@H](Cc1ccccc1)C(=O)N[C@@H](CC(C)C)C(=O)[C@@]1(C)CO1`, for which, in the data set listed under Homo sapiens [15], the Ratio was determined as 58600. In addition, the pIC50 in data set [6] is 8.03; in data set [7], 7.44; in [8] it was 7.40; in data set [9] it was 7.12. Further, the Activity is 9% in the data set with Mus musculus [16] and 33% in the data set on Mus musculus [18]. For the same molecule, the remaining at 0.25 h, 4 µM in data set [10] is 90%. For the same molecule, the hepatic extraction ratio at 1 µM in [11] was determined as 0.96 dimensionless ratio; in data set [12] it was 0.91 dimensionless ratio. The concentration in solution in [17] (solubility) was 750 µg/mL (≈ 1.42 mM).

As to `CC(C)C[C@H](NC(=O)[C@H](CCc1ccccc1)NC(=O)CN1CCOCC1)C(=O)N[C@@H](Cc1ccccc1)C(=O)N[C@@H](CC(C)C)C(=O)[C@@]1(C)CO1` [CARFILZOMIB], the fold change (FC) in the data set listed under Homo sapiens [19] and in the data set filed under Homo sapiens [26] was over 100 in each case. Moreover, the pIC50 is 8.28 in [1]; 8.24 in data set [6]; 8.29 in [7]; 7.74 in data set [8]; 6.38 in data set [9]. For the same molecule, the Activity worked out at 35 days in the data set on RL [20]; 26 days in the data set on CT26 [21]; 109% with Mus musculus [23]; 77% in the data set with Mus musculus [24]; 83% in the data set on Mus musculus [16]. Further, the MTD in [22] is 5 mg/kg. Also, the remaining at 0.25 h, 4 µM in data set [25] was 15%; in data set [10], under 5%.

Regarding `COC[C@H](NC(=O)c1cc(C)on1)C(=O)N[C@@H](COC)C(=O)N[C@@H](CC(C)C)C(=O)[C@@]1(C)CO1`, the pIC50 is 7.77 in data set [1]; 7.96 in data set [6]; 7.32 in [7]; 7.66 in data set [8]; 6.84 in data set [9]; 6.62 in data set [14]. Also, the Ratio in the data set listed under Homo sapiens [15] is 31800. In addition, the remaining at 0.25 h, 4 µM in data set [10] is 70%. In addition, the hepatic extraction ratio at 1 µM in data set [11] came out at 0.67 dimensionless ratio; in [12] it was 0.54 dimensionless ratio. Moreover, in data set [17], the concentration in solution (solubility) was 5880 µg/mL (≈ 12.2 mM). The Activity amounted to 21% in the data set with Mus musculus [13] and 9% in the data set on Mus musculus [18].

As for `CC(C)C[C@H](NC(=O)CN1CCOCC1)C(=O)N[C@@H](Cc1ccccc1)C(=O)N[C@@H](CC(C)C)C(=O)[C@@]1(C)CO1`, the Ratio in the data set filed under Homo sapiens [15] was found to be 7900. Besides, the pIC50 in data set [6] was 7.24; in [7], 7.35; in data set [8], 7.46; in data set [9] it was 6.51. The Activity in the data set on Mus musculus [23] is given as 22%; in the data set on Mus musculus [24], 37%; with Mus musculus [16] it was 82%. For the same molecule, the remaining at 0.25 h, 4 µM in data set [25] was 90%; in data set [10], 45%. The hepatic extraction ratio at 1 µM in data set [11] (read-out: ERH) turned out to be 0.95.

The values are drawn from ChEMBL document CHEMBL1138457, “Design and synthesis of an orally bioavailable and selective peptide epoxyketone proteasome inhibitor (PR-047)” (J Med Chem, 2009).
